Results: article PMC9774438, “Effects of Synthetic Short Cationic Antimicrobial Peptides on the Catalytic Activity of Myeloperoxidase, Reducing Its Oxidative Capacity” (Antioxidants, 2022)
Where “and” joins values, the source holds several entries; their conditions need not be identical. Equal values may be shown once. Read-outs that look alike come from different tables or passages of the source. Where a SMILES comes first, the peptide text is derived from it.

What was measured:
[1] = tested on: MPO; details: MPO/H2O2 system; ref [57]; cited from earlier work
[2] = tested on: MPO; details: cited from earlier work; for peroxidase substrate behaviour of free amino acid: literature statement
Excerpt: Free tyrosine is known to be a peroxidase substrate, reacting rapidly with both Compounds I and II. […] MPO-catalyzed oxidation of tyrosine occurs in the absence as well as presence of chloride, which is accompanied by hastened HOCl production. […] In addition to cysteine, pept_1545 contains tryptophan, another redox active amino acid. […] Fluorescence measurements (λex = 290 nm, λem = 310–450 nm) were ...

[3] = target: T1, myeloperoxidase (MPO) (Homo sapiens, UniProt P05164); assay: MPO chlorinating activity (Celestine Blue B assay); format: biochemical; details: for IC50: 0.8 nM MPO heme, 200 μM CB, 150 mM NaCl, 50 μM H2O2, 50 mM Na-acetate pH 5.5, 5 min preincubation
T1 construct: Native myeloperoxidase (MPO) was obtained from human leukocyte extract by successive chromatography on heparin-Sepharose and phenyl-agarose; from tissue; host or cells: human leukocyte extract
Procedure: MPO chlorinating activity was evaluated fluorometrically using Celestine Blue B (CB) which was oxidized to fluorescent glycol (λex = 487 nm, λem = 578 nm) by taurine N-chloramine produced in the reaction of taurine with HOCl generated by MPO [39]. The assay was performed in 96-plate format. MPO was preincubated with peptides for 5 min in a volume of 100 μL, with the concentrations being: MPO, 1.6 nM heme and peptide, 16 nM–16 μM. Then, 100 μL aliquots of CB-containing mix (CB, 400 µM; H2O2, 100 µM; taurine, 4 mM; KI, 10 µM; NaCl, 300 mM; 50 mM Na-acetate buffer, pH 5.5) were added to MPO/peptide and to 100 μL of HOCl standards (0–150 μM). The fluorescence measurement was made with a CLARIOstar multimodal plate reader (BMG Labtech, Ortenberg, Germany) at 15 min after the reaction started. Fluorescence intensity detected for HOCl standards of HOCl was used for calculating the chlorinating activity as mole of HOCl per mole of MPO heme per second. To determine the type of CAMP-induced inhibition, KM and Vmax were obtained by varying substrates of MPO: NaCl in a final concentration from 25 to 300 mM, or H2O2 in a final concentration from 5 to 80 µM.
(§1) The Hannes-Wolf plots were made as ([Substrate]/V = f([Substrate]). KM was equal in magnitude to the intercept made on the abscissa axis by the approximating straight line; Vmax was calculated as a reciprocal value of the straight-line slope. The inhibition constant (Ki) for noncompetitive inhibition was calculated as follows: Ki = [I]/((Vmax − Vmax’)/Vmax’); Ki for competitive inhibition was calculated as follows: Ki = [I]/((KM’ − KM)/KM); Ki for mixed inhibition was calculated as follows: Ki = [I]/(((KM’ − KM)/KM)^2 + ((Vmax − Vmax’)/Vmax’))^2)^0.5; and Ki for uncompetitive inhibition was calculated as follows: Ki = [I]/(((KM − KM’)/KM’)^2 + ((Vmax – Vmax’)/Vmax’))^2)^0.5, where [I]—concentration of inhibitor (CAMP), KM—Michaelis constant without inhibitor, Vmax—maximal rate without inhibitor, KM’—Michaelis constant in the presence of inhibitor, Vmax’—maximal rate in the presence of inhibitor.
Chlorinating activity is a distinctive feature of MPO as compared with other peroxidases and it is an important property, enabling MPO to combat microbes. We tested whether the inhibitory effects of pept_1545 and Hm-AMP8 on peroxidase activity extend to MPO chlorinating activity. Chlorinating activity was measured using a fluorometric CB-based assay. To determine the concentration dependence of the effect of CAMPs on MPO chlorinating activity, the 0.008–8 μM concentration range (corresponding to 10–10,000 peptide molecules per heme) was used.

[4] = target: T1, myeloperoxidase (MPO); assay: MPO peroxidase activity (Amplex Red assay); format: biochemical; details: for IC50: 50 μM Amplex Red, 25 μM H2O2, 50 mM K-phosphate pH 7.4, 5 min preincubation; for Ki: 20 μM pept_1545 or 2 μM Hm-AMP8, 50 mM K-phosphate pH 7.4, Hanes–Woolf
Procedure: MPO peroxidase activity was evaluated fluorometrically using Amplex Red^TM reagent which was oxidized by MPO to the fluorescent resorufin (λex = 530 nm, λem = 590 nm). The assay was performed in 96-plate format. The final reaction mixture in 50 mM K-phosphate buffer (pH 7.4) was as follows: MPO, 8 nM heme; peptide, […]; H2O2, 25 μM; Amplex Red reagent, 50 μM. MPO was preincubated with peptides for 5 min in a volume of 100 μl. Then, Amplex Red was added, and the enzymatic reaction was initiated by adding H2O2 (a final probe volume of 200 μL per well). The fluorescence measurement was made with a CLARIOstar multimodal plate reader (BMG Labtech, Ortenberg, Germany) at 5 min after the beginning of the reaction. To determine the type of CAMP-induced inhibition, KM and Vmax were obtained by varying substrates of MPO: Amplex Red in a final concentration from 1 to 62.5 μM, or H2O2 in a final concentration from 0.625 to 20 μM.
as §1
From the experiments with varying concentrations of H2O2 (0.01–200 μM) and Amplex Red (6.25–100 μM), the optimal concentrations of 25 μM H2O2 and 50 μM Amplex Red were chosen for further work. The 0.8–50 μM concentration range (corresponding to 100–6250 peptide molecules per heme) was used to determine the concentration dependence of the effect of CAMPs on peroxidase activity of MPO.

[5] = target: T1, myeloperoxidase (MPO); assay: Measurement of sulfhydryl groups with MPO/H2O2 (DTNB); format: biochemical; details: for free sulfhydryl groups, percentage relative to CAMP + MPO without H2O2: 150 μM peptide, 1 μM MPO heme, 100 μM H2O2, 10 mM Na-phosphate pH 7.4, mean ± SD, * p < 0.05 where marked
Procedure: The peroxidase reaction was carried out in 10 mM Na-phosphate buffer, pH 7.4 (containing 0.2 mM DTPA), in a volume of 60 μl placed in the wells of a 96-well plate. Peptides were added to MPO (1 μM heme) to a concentration of 150 μM. Following 5 min of incubation, H2O2 (100 μM, final) was added to test samples to trigger the reaction. Control samples were the same except H2O2. The content of free sulfhydryl groups was estimated spectrophotometrically by using 5,5′-dithiobis(2-nitrobenzoic acid) (DTNB, Ellman’s reagent) prepared in 0.4 M Tris-HCl buffer, pH 9.0. At a desired time after the reaction was started, 120 μL aliquots of freshly prepared DTNB-containing buffer were added to one part of samples (160 μM DTNB, final) and […] of the buffer without DTNB was added to another part of the same samples. […] Absorbance in the absence of DTNB was subtracted from that in the presence of DTNB. The loss of sulfhydryl groups was expressed as a percentage relative to controls incubated without H2O2.
To determine an estimation of whether the cysteine residue of pept_1545 and Hm-AMP8 participated in MPO-mediated reactions, we compared the content of free sulfhydryl groups in the reaction mixtures of peptides (150 μM) with the MPO/H2O2 system (1 μM heme, 100 μM H2O2) and control samples containing peptides plus MPO with no added H2O2. Measurements of sulfhydryl groups were made at 5 min and 90 min of incubation (Table 2).

[6] = 8 μM pept_1545 or 0.8 μM Hm-AMP8, 25–300 mM NaCl, 50 μM H2O2, 0.8 nM MPO, 50 mM Na-acetate pH 5.5, Hanes–Woolf, read-out: Inhibition constant (Ki) towards Cl−
[7] = Ki towards H2O2 and Cl– (abstract, range over both substrates), chlorinating activity, pH 5.5
[8] = 0.625–20 μM H2O2, 50 μM Amplex Red, 8 nM MPO heme, read-out: Inhibition constant (Ki) towards H2O2, peroxidase activity
[9] = 1–62.5 μM Amplex Red, 25 μM H2O2, 8 nM MPO heme, read-out: Inhibition constant (Ki) towards Amplex Red

T1 sequence (P05164 279-745 limits assumed): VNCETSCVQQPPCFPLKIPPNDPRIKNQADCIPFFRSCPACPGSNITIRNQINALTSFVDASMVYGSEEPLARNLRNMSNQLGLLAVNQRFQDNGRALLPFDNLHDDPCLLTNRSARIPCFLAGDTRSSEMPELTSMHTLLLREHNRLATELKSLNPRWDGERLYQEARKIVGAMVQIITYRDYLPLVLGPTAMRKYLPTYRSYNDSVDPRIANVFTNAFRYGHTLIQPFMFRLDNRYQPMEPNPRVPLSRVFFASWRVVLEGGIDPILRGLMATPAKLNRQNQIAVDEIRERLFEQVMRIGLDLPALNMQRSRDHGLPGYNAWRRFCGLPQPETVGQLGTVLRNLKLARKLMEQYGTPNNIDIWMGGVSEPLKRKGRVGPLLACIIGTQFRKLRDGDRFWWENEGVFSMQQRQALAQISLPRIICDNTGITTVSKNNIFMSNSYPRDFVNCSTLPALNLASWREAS
T1 sequence (P05164 165-273 limits assumed): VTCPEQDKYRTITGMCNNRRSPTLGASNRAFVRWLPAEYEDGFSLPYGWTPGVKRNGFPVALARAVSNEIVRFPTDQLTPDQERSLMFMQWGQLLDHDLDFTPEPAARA

N-acetyl lysyltyrosylcysteine amide [KYC]
formation of dityrosine [1]: formation of dityrosine only by KYS | oxidation of tyrosine residues by MPO [1]: MPO oxidized tyrosine residues in both KYC and KYS

N-acetyl lysyltyrosylserine amide [KYS]
formation of dityrosine [1]: formation of dityrosine only by KYS | oxidation of tyrosine residues by MPO [1]: MPO oxidized tyrosine residues in both KYC and KYS

N[C@@H](Cc1ccc(O)cc1)C(=O)O [tyrosine]
bimolecular rate constant for reaction with Compound I ([2]; free tyrosine, ref [42]): 770000 M⁻¹ s⁻¹ | bimolecular rate constant for reaction with Compound II ([2]; free tyrosine, ref [42]): 16000 M⁻¹ s⁻¹ | peroxidase substrate behaviour of free amino acid [2]: accelerates MPO turnover

N[C@@H](Cc1c[nH]c2ccccc12)C(=O)O [tryptophan]
peroxidase substrate behaviour of free amino acid [2]: poor peroxidase substrate

CC[C@H](C)[C@H](NC(=O)[C@H](C)NC(=O)[C@H](CCCCN)NC(=O)CNC(=O)[C@@H](NC(=O)[C@H](CC(C)C)NC(=O)[C@@H](N)Cc1ccccc1)[C@@H](C)CC)C(=O)N[C@@H](CCCCN)C(=O)N[C@@H](CCCNC(=N)N)C(=O)N[C@@H](CCCCN)C(=O)N[C@@H](Cc1ccccc1)C(=O)N[C@@H](CS)C(=O)N[C@@H](CC(C)C)C(=O)N[C@@H](CCCNC(=N)N)C(=O)N[C@@H](CO)C(=O)N[C@H](C(=O)N[C@@H](Cc1c[nH]c2ccccc12)C(=O)N[C@@H](CC(N)=O)C(=O)N[C@@H](C)C(N)=O)C(C)C [pept_1545] (H-FLIGKAIKRKFCLRSVWNA-NH2)
IC50 [3]: 7400 nM | Ki [3, 6]: 19500 nM | Ki [3, 7]: 11000 to 20000 nM | IC50 ([4]; 8 nM MPO heme): 11200 nM | Ki [4, 8]: 52800 nM | Ki [4, 9]: 48300 nM | decrease in amount of –SH groups ([5]; 5 min incubation with MPO/H2O2): about 20% | free sulfhydryl groups, percentage relative to CAMP + MPO without H2O2 ([5]; 5 min incubation): * 80 ± 4% | free sulfhydryl groups, percentage relative to CAMP + MPO without H2O2 ([5]; 90 min incubation): * 76 ± 5%

CC[C@H](C)[C@H](NC(=O)[C@H](C)NC(=O)[C@H](CC(N)=O)NC(=O)[C@H](Cc1ccc(O)cc1)NC(=O)[C@@H]1CCCN1C(=O)[C@@H](NC(=O)[C@H](CCCCN)NC(=O)[C@H](Cc1ccc(O)cc1)NC(=O)[C@@H](NC(=O)[C@@H](NC(=O)[C@H](C)NC(=O)[C@@H](N)CCCNC(=N)N)C(C)C)[C@@H](C)CC)[C@@H](C)CC)C(=O)N[C@@H](C)C(=O)N[C@@H](CO)C(=O)N[C@@H](CCCNC(=N)N)C(=O)N[C@@H](Cc1c[nH]c2ccccc12)C(=O)N[C@H](C(=O)N[C@H](C(=O)N[C@@H](C)C(=O)N1CCC[C@H]1C(=O)N[C@@H](CCCCN)C(=O)N[C@@H](CCCCN)C(=O)N[C@@H](CS)C(N)=O)[C@@H](C)CC)[C@@H](C)CC [Hm-AMP8] (H-RAVIYKIPYNAIASRWIIAPKKC-NH2)
IC50 [3]: 300 nM | Ki ([3]; 8 μM pept_1545 or 0.8 μM Hm-AMP8, 5–80 μM H2O2, 150 mM NaCl, 0.8 nM MPO, 50 mM Na-acetate pH 5.5, Hanes–Woolf, read-out: Inhibition constant (Ki) towards H2O2, chlorinating activity): 280 nM | Ki [3, 6]: 420 nM | Ki [3, 7]: 300 to 400 nM | IC50 ([4]; 8 nM MPO heme): 1700 nM and 2000 nM | Ki [4, 8]: 1790 nM | Ki [4, 9]: 1100 nM | free sulfhydryl groups, percentage relative to CAMP + MPO without H2O2 ([5]; 5 min incubation): 93 ± 5% | free sulfhydryl groups, percentage relative to CAMP + MPO without H2O2 ([5]; 90 min incubation): * 79 ± 6%

N[C@@H](CS)C(=O)O [cysteine]
bimolecular rate constant for reaction with Compound I ([2]; free cysteine, ref [50]): 4100 M⁻¹ s⁻¹ | bimolecular rate constant for reaction with Compound II ([2]; free cysteine, ref [50]): < 10 M⁻¹ s⁻¹ | peroxidase substrate behaviour of free amino acid [2]: poor peroxidase substrate
